Assay in all cases: DTP human tumour cell line panel, 48 h
Assay [1] concerns A498.
The test system of assay [2] is A549.
For assay [3], the system named is CCRF-CEM.
Assay [4] relates to DU-145.
The test system of assay [5] is HCC 2998.
Assay [6] concerns HCT-15.
Assay [7] concerns K562.
For assay [8], the system named is LOX IMVI.
Assay [9] relates to M14.
In assay [10] the test system is MDA-N.
In assay [11] the test system is NCI-H23.
The test system of assay [12] is NCI-H460.
In assay [13] the test system is NCI-H522.
Assay [14] concerns OVCAR-3.
Assay [15] relates to SF-268.
For assay [16], the system named is SK-MEL-2.
Assay [17] relates to SNB-19.
The test system of assay [18] is SR.
The subject of assay [19] is TK-10.
Assay [20] deals with SNB-75.

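Five compound concentrations were applied to cells in 96-well plates for 48 hours; endpoints were derived by simple linear interpolation of the resulting dose-response curve. At the GI50, growth is halved.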 Active and inactive are the calls of the source. Rule as the data show it: active = GI50 up to about 1.1 µM and inactive = higher.

One may read the GI50 as the concentration giving 50% growth inhibition.

Regarding `Nc1ccc2c(c1)S(=O)(=O)c1cc(O)ccc1O2`, the GI50 in assay [1] was 31.2 µM (inactive); in assay [2], > 100 µM (inactive); in assay [3], > 100 µM (inactive); in assay [4], > 100 µM (inactive); in assay [5], > 100 µM (inactive); in assay [6], above 100 µM. The GI50 in assay [7], in assay [8], in assay [9], in assay [10], in assay [11] and in [12] was > 100 µM (inactive) each time. The GI50 in assay [13] is > 100 µM (inactive); in assay [14] it was > 100 µM (inactive); in assay [15] it was > 100 µM (inactive); in assay [16], > 100 µM (inactive); in [17], > 100 µM (inactive); in assay [18] it was 39.7 µM (inactive). Moreover, the GI50 in assay [19] was > 100 µM (inactive).
Turning to `Cc1ccc(/N=N/C(=N\c2ccc(Cl)cc2)c2ccc(N(CCC#N)CCC#N)cc2)cc1`, the GI50 in assay [1] was > 100 µM (inactive); in [2], 29.6 µM (inactive); in assay [3], 21.6 µM (inactive); in [4], 37.7 µM (inactive); in [5] it was 18.8 µM (inactive); in assay [6], 14.2 µM. Further, the GI50 was > 100 µM (inactive) in [7]; 30.8 µM (inactive) in assay [9]; 55.6 µM (inactive) in assay [10]; 48.6 µM (inactive) in assay [11]; 18.1 µM (inactive) in [12]; 19.4 µM (inactive) in assay [13]. Also, the GI50 is 33.4 µM (inactive) in [14]; 48.1 µM (inactive) in assay [15]; > 100 µM (inactive) in assay [17]; 60.3 µM (inactive) in assay [20]; 22 µM (inactive) in assay [18]; 21.7 µM (inactive) in assay [19].
For the molecule `COc1ccc(C2=Nn3c(nc4sc(C)c(C)c4c3=O)SC2)cc1`, the GI50 in assay [1] is > 100 µM (inactive); in assay [2], > 100 µM (inactive); in assay [3], > 100 µM (inactive); in assay [4], > 100 µM (inactive); in assay [5], > 100 µM (inactive); in assay [6] it was above 100 µM. In addition, the GI50 in assay [7], in assay [8], in assay [10], in [11], in [12] and in assay [13] was > 100 µM (inactive) in each case. Moreover, the GI50 in assay [14], in assay [15], in assay [20], in assay [18] and in assay [19] was > 100 µM (inactive) in each case.
`O=S(=O)(NC1CCCCC1)c1ccc2c(c1)OCCOCCOCCOCCO2`: the GI50 in assay [1] was > 100 µM (inactive); in [2], > 100 µM (inactive); in [3], > 100 µM (inactive); in assay [4], > 100 µM (inactive); in [5], > 100 µM (inactive); in assay [6], above 100 µM. The GI50 in assay [7], in assay [8], in [9], in assay [10], in [11] and in assay [12] was > 100 µM (inactive) throughout. Also, the GI50 in assay [13], in assay [15], in assay [17], in assay [20], in [18] and in assay [19] was > 100 µM (inactive) in each case.
As to `O=C(/C=C/c1ccc2c(c1)OCO2)Cc1nc2ncccc2[nH]c1=O`, the GI50 in assay [1] was > 100 µM (inactive); in assay [2], > 100 µM (inactive); in [3] it was > 100 µM (inactive); in assay [4] it was > 100 µM (inactive); in assay [5], > 100 µM (inactive); in assay [6], 92.7 µM. Besides, the GI50 in assay [7] was 5.55 µM (inactive); in assay [8] it was 8.53 µM (inactive); in [9], > 100 µM (inactive); in [10] it was > 100 µM (inactive); in assay [11], > 100 µM (inactive); in assay [12], > 100 µM (inactive). Also, the GI50 in assay [13] was 60.7 µM (inactive); in assay [14], > 100 µM (inactive); in assay [15] it was 49.7 µM (inactive); in [16], > 100 µM (inactive); in [17], 63.8 µM (inactive); in assay [18] it was 77.1 µM (inactive). For the same molecule, the GI50 in assay [19] is 42.8 µM (inactive).
Regarding `CCOC(=O)c1ccc(C(=O)/C(C#N)=C2\CCCN2)[nH]1`, the GI50 was > 100 µM (inactive) in assay [1]; 50.5 µM (inactive) in [2]; 63.2 µM (inactive) in assay [3]; > 100 µM (inactive) in [4]; > 100 µM (inactive) in assay [5]; above 100 µM in assay [6]. In addition, the GI50 was 52.6 µM (inactive) in assay [7]; > 100 µM (inactive) in assay [8]; > 100 µM (inactive) in assay [9]; 30.1 µM (inactive) in assay [10]; > 100 µM (inactive) in assay [11]; > 100 µM (inactive) in assay [12]. The GI50 is 82.2 µM (inactive) in assay [14]; > 100 µM (inactive) in [15]; 97.1 µM (inactive) in assay [16]; > 100 µM (inactive) in [17]; 34 µM (inactive) in [20]; 19.6 µM (inactive) in assay [18].
As to `CC[C@H]1C=CCC[C@@]2(C[C@@H]3CC[C@@H]4[C@H](C(=O)OCCCCCCCCCCCCCCCC(=O)N(CCCNC(C)=O)C[C@H](CCNC(C)=O)OC(C)=O)[C@]5(CCC[C@@H](C)O5)NC(=[N+]34)N2)O1`, the GI50 in assay [1] was 0.435 µM (active); in assay [2], 0.215 µM (active); in assay [3] it was 0.00184 µM (active); in [4] it was 0.0918 µM (active); in [5], 0.023 µM (active); in assay [6], 0.904 µM. Besides, the GI50 in assay [7] is 0.168 µM (active); in assay [8], 0.0277 µM (active); in [9] it was 0.129 µM (active); in [10], 0.0466 µM (active); in assay [11] it was 0.583 µM (active); in assay [12] it was 0.131 µM (active). For the same molecule, the GI50 in [13] is 0.0331 µM (active); in assay [14], 0.158 µM (active); in [15], 0.187 µM (active); in assay [16], 0.0404 µM (active); in assay [17] it was 0.533 µM (active); in assay [18] it was 0.0394 µM (active). In addition, in [19], the GI50 was 0.759 µM (active).
With `COC(COC(=O)N1CCN(C=O)CC1)C1=C(N2CC2)C(=O)C(C)=C(N2CC2)C1=O` (stereo not drawn), the GI50 in [1] was 1.51 µM (inactive); in assay [2], 0.167 µM (active); in assay [3], 0.13 µM (active); in assay [4] it was 0.0472 µM (active); in assay [5], 21.2 µM (inactive); in assay [6], 1.73 µM. For the same molecule, the GI50 was 0.462 µM (active) in assay [7]; 0.0664 µM (active) in assay [8]; 0.202 µM (active) in [9]; 0.248 µM (active) in assay [10]; 0.0675 µM (active) in assay [11]; < 0.0278 µM (active) in assay [12]. Besides, the 50% growth inhibitory concentration (GI50) in assay [13] was 0.107 µM (active); in [14], 0.656 µM (active); in assay [15], 0.12 µM (active); in [16], 0.705 µM (active); in assay [17] it was 0.437 µM (active); in [18], < 0.01 µM (active). Further, in assay [19], the GI50 is 0.579 µM (active).
`CN(C)CCNC(=O)c1cccc2c(NC(CCCNC(=N)N)C(=O)O)c3ccccc3[n+](C)c12` (stereo not drawn): the GI50 is > 100 µM (inactive) in assay [1]; 78.5 µM (inactive) in assay [2]; 70.1 µM (inactive) in assay [4]; 69.5 µM (inactive) in assay [5]; above 100 µM in assay [6]; > 100 µM (inactive) in [7]. Besides, the GI50 was 66.1 µM (inactive) in assay [8]; > 100 µM (inactive) in assay [9]; 61.5 µM (inactive) in assay [10]; > 100 µM (inactive) in [11]; 49.3 µM (inactive) in assay [12]; > 100 µM (inactive) in [14]. In addition, the GI50 in assay [15] was 29 µM (inactive); in assay [16], > 100 µM (inactive); in [17], > 100 µM (inactive); in assay [20], 28.1 µM (inactive); in [18], > 100 µM (inactive); in assay [19] it was > 100 µM (inactive).
For `Cc1c(-c2ccccc2)[nH]c2cn[nH]c(=O)c12`, the GI50 in [1] was > 100 µM (inactive); in [2] it was > 100 µM (inactive); in [3], 57.1 µM (inactive); in assay [4], > 100 µM (inactive); in assay [5], > 100 µM (inactive); in assay [6], 55.3 µM. For the same molecule, the GI50 in assay [7] is 99.8 µM (inactive); in [8], 70.6 µM (inactive); in assay [9], > 100 µM (inactive); in [10] it was > 100 µM (inactive); in [11] it was > 100 µM (inactive); in [12], > 100 µM (inactive). The GI50 is 86.1 µM (inactive) in assay [13]; 39.6 µM (inactive) in [14]; > 100 µM (inactive) in assay [15]; 90.8 µM (inactive) in assay [16]; > 100 µM (inactive) in assay [17]; 88.7 µM (inactive) in [18]. Also, the GI50 in assay [19] was > 100 µM (inactive).
With `NS(=O)(=O)c1ccc(/N=N/c2cccnc2O)cc1`, the GI50 in assay [1] is > 100 µM (inactive); in assay [2], > 100 µM (inactive); in [3] it was 20.7 µM (inactive); in assay [4], > 100 µM (inactive); in assay [6] it was above 100 µM; in assay [7] it was > 100 µM (inactive). Moreover, the GI50 in [8], in assay [9], in [10], in assay [11], in [12] and in [13] was > 100 µM (inactive) each time. Moreover, the GI50 in assay [14], in [15], in assay [16], in assay [17], in [20] and in [18] was > 100 µM (inactive) each time. Also, the GI50 in assay [19] was > 100 µM (inactive).

The record behind these values is ChEMBL document CHEMBL1201862, “PubChem BioAssay data set” (2004).
